The source of these data is US9845330B2, “6-nitro-2,3-dihydroimidazo[2,1-b]oxazoles and a process for the preparation thereof” (priority 2013, dated 2017).

Converted amounts (≈) assume the structure as drawn. Where two headings read alike, the source gives them in different places. A value given as a limit tells only on which side of the number the result lay.

Series [1] relates to macrophage J774 cells line. Put plainly: Cytotoxicity assay (MTT) in macrophage J774 cells. As to conditions: J774 cells, 24 hrs, MTT. The series is classed as cell-based. Here is the method: The study was carried out using macrophage J774 cells line (ATCC-USA). Cells were grown in Rosewell Park Memorial Institute Medium (RPMI) containing 10% fetal calf serum (FCS) and supplemented with 75 mg/liter penicillin, 100 mg/liter streptomycin, 110 mg/liter Sodium pyruvate, 2.38 gm/liter HEPES, 0.05 mM 2 β-mercaptoethanol, and 2 gm/liter NaHCO3, in a humidified atmosphere in 5% CO2 at 37° C., and were sub-cultured at 1:4 ratio once a week.
Cells were plated at a density of 3×10^4 cells/cm^2 and maintained in culture medium for 12 hours. Cells were seeded onto 96-well flat bottom plates and FCS was reduced to 5% for the experiment. Stock solutions of compounds IA1 to IIC10 were prepared fresh to avoid oxidation. Cells were incubated with the compounds (40 μg/ml) for 24 hrs.
After the completion of incubation, the medium was removed and cell viability was evaluated by assaying for the ability of functional mitochondria to catalyze the reduction of 3-(4,5-dimethylthiazol-2-yl)-2,5-diphenyltetrazolium bromide (MTT) to form formazan salt by mitochondrial dehydrogenases, and determined by Elisa reader at 450 nm (Multiskan Spectrum; Thermo Electron Corporation, USA). Percentage cytotoxicity was calculated with respect to the untreated cells.

Series [2] relates to M. tuberculosis H37Rv (ATCC 27294). In words: MIC by broth dilution method, M. tuberculosis H37Rv. The series is classed as cell-based. The settings on record: Mycobacterium tuberculosis, 504 h. Background: In broth dilution the organism is exposed to a series of concentrations in liquid medium.
Setting [3] is: broth dilution, 3 weeks, read-out: MIC M. tb H37Rv.
Where [4] appears, read: text summary: sensitive H37Rv as well as MDR and XDR strains of M. tuberculosis, read-out: MIC value.

For orientation: MIC means the least concentration at which growth counts as inhibited. As to `CCC(C)c1ccc(OCc2cc(-c3ccc(OC[C@@]4(C)Cn5cc([N+](=O)[O-])nc5O4)cc3)no2)cc1` (stereo partly drawn) [IC20, (R)-2-{4-[5-(4-sec-butylphenoxymethyl)isoxazol-3-yl]phenoxymethyl}-2,3-dihydro-2-methyl-6-nitroimidazo[2,1-b]oxazole], in series [1], the Cytotoxicity was above 40 µg/mL. Also, the MIC in series [2] (setting [3]) stood at 2 µg/mL (≈ 3.96 µM).

The compound `C[C@]1(COc2ccc(-c3cc(COc4ccccc4)on3)cc2)Cn2cc([N+](=O)[O-])nc2O1` [IC21, (R)-2-{4-[5-(phenoxymethyl)isoxazol-3-yl]phenoxymethyl}-2,3-dihydro-2-methyl-6-nitroimidazo[2,1-b]oxazole] came in with a Cytotoxicity in series [1] above 40 µg/mL. The MIC in series [2] (setting [3]) turned out to be 4 µg/mL (≈ 8.92 µM).

`C[C@]1(COc2ccc(S(=O)(=O)Nc3ccc(OC(F)(F)F)cc3)cc2)Cn2cc([N+](=O)[O-])nc2O1` [IIB2, (R)-4-{(2-methyl-6-nitro-2,3-dihydroimidazo[2,1-b]oxazol-2-yl)methoxy}-N-(4 trifluoromethoxyphenyl)benzenesulfonamide] returned a Cytotoxicity in series [1] above 40 µg/mL. In addition, the MIC in series [2] (setting [3]) worked out at 2 µg/mL (≈ 3.89 µM).

In turn, `C[C@]1(COc2ccc(S(=O)(=O)N3CCN(c4ccc(F)cc4)CC3)cc2)Cn2cc([N+](=O)[O-])nc2O1` [IIC2, (R)-2-{4-[4-(4-fluorophenyl)piperazin-1-yl]sulfonylphenoxymethyl}-2,3-dihydro-2-methyl-6-nitroimidazo[2,1-b]oxazole] yielded a Cytotoxicity in series [1] above 40 µg/mL. Besides, the MIC in series [2] (setting [3]) came out at 2 µg/mL (≈ 3.86 µM).

Consider `C[C@]1(COc2ccc(S(=O)(=O)N3CCN(c4ccccc4)CC3)cc2)Cn2cc([N+](=O)[O-])nc2O1` [IIC1, (R)-2-{4-(4-phenylpiperazin-1-yl)sulfonylphenoxymethyl}-2,3-dihydro-2-methyl-6-nitroimidazo[2,1-b]oxazole], for which the Cytotoxicity in series [1] was above 40 µg/mL. In addition, the MIC in series [2] (setting [3]) worked out at 1 µg/mL (≈ 2 µM).

`C[C@]1(COc2cccc(-n3cc(COc4ccccc4F)nn3)c2)Cn2cc([N+](=O)[O-])nc2O1` [IA36] returned a Cytotoxicity in series [1] above 40 µg/mL. Besides, the MIC in series [2] (setting [3]) amounted to 2 µg/mL (≈ 4.29 µM).

`CC(C)c1ccc(-c2cn(-c3ccc(OC[C@@]4(C)Cn5cc([N+](=O)[O-])nc5O4)cc3)nn2)cc1` [IA9, (R)-2-{4-[4-(4-isopropylphenyl)-1H-1,2,3-triazol-1-yl]phenoxymethyl}-2,3-dihydro-2-methyl-6-nitroimidazo[2,1-b]oxazole] displayed a Cytotoxicity in series [1] above 40 µg/mL. Moreover, in series [2] (setting [3]), the MIC is 1 µg/mL (≈ 2.17 µM).

The compound `C[C@]1(COc2cccc(-n3cc(COc4ccc(C(F)(F)F)cc4)nn3)c2)Cn2cc([N+](=O)[O-])nc2O1` [IA35] showed a Cytotoxicity in series [1] above 40 µg/mL. Moreover, in series [2] (setting [3]), the MIC was 2 µg/mL (≈ 3.87 µM).

As for `C[C@]1(COc2ccc(-n3nnnc3-c3ccc(OC(F)(F)F)cc3)cc2)Cn2cc([N+](=O)[O-])nc2O1` [IB2, (R)-2-{4-[5-(4-trifluoromethoxyphenyl)-1H-tetrazol-1-yl]phenoxymethyl}-2,3-dihydro-2-methyl-6-nitroimidazo[2,1-b]oxazole], the Cytotoxicity in series [1] is above 40 µg/mL. The MIC in series [2] (setting [3]) is 2 µg/mL (≈ 3.97 µM); in series [2] (setting [4]), 1 to 4 µg/mL (≈ 1.99 to 7.95 µM).

On to `C[C@]1(COc2ccc(NC(=S)Nc3ccc(C(F)(F)F)cc3)cc2)Cn2cc([N+](=O)[O-])nc2O1` [IIA10, (R)-1-(4-trifluoromethylphenyl)-3-{4-(2-methyl-6-nitro-2,3-dihydroimidazo[2,1-b]oxazol-2-yl)methoxyphenyl}thiourea], for which the Cytotoxicity in series [1] was above 40 µg/mL. Moreover, in series [2] (setting [3]), the MIC came to 4 µg/mL (≈ 8.11 µM).

In series [1], `C[C@]1(COc2ccc(-n3nnnc3-c3ccc(F)cc3)cc2)Cn2cc([N+](=O)[O-])nc2O1` [IB4, (R)-2-{4-[5-(4-fluorophenyl)-1H-tetrazol-1-yl]phenoxymethyl}-2,3-dihydro-2-methyl-6-nitroimidazo[2,1-b]oxazole] displayed a Cytotoxicity above 40 µg/mL. Besides, the MIC is 4 µg/mL (≈ 9.15 µM) in series [2] (setting [3]) and 1 to 4 µg/mL (≈ 2.29 to 9.15 µM) in series [2] (setting [4]).

Consider `C[C@]1(COc2ccc(-c3cc(-c4ccccn4)on3)cc2)Cn2cc([N+](=O)[O-])nc2O1` [IC9, (R)-2-{4-[5-(pyridin-2-yl)isoxazol-3-yl]phenoxymethyl}-2,3-dihydro-2-methyl-6-nitroimidazo[2,1-b]oxazole], for which, in series [1], the Cytotoxicity was above 40 µg/mL. Further, in series [2] (setting [3]), the MIC was 2 µg/mL (≈ 4.77 µM).

In series [1], `C[C@]1(COc2cccc(-n3cc(-c4ccc(C(F)(F)F)cc4)nn3)c2)Cn2cc([N+](=O)[O-])nc2O1` [IA18, (R)-2-{3-[4-(4-trifluoromethylphenyl)-1H-1,2,3-triazol-1-yl]phenoxymethyl}-2,3-dihydro-2-methyl-6-nitroimidazo[2,1-b]oxazole] showed a Cytotoxicity above 40 µg/mL. For the same compound, the minimal inhibitory concentration (MIC) in series [2] (setting [3]) was 2 µg/mL (≈ 4.11 µM).

On to `CN(c1ccccc1)S(=O)(=O)c1ccc(OC[C@@]2(C)Cn3cc([N+](=O)[O-])nc3O2)cc1` [IIB4, (R)—N-methyl-4-{(2-methyl-6-nitro-2,3-dihydroimidazo[2,1-b]oxazol-2-yl)methoxy}-N-phenylbenzenesulfonamide], for which the Cytotoxicity in series [1] is above 40 µg/mL. Further, in series [2] (setting [3]), the MIC was 4 µg/mL (≈ 9 µM).

Consider `C[C@]1(COc2ccc(-n3nnnc3-c3ccccc3)cc2)Cn2cc([N+](=O)[O-])nc2O1` [IB1, (R)-2-{4-[5-phenyl-1H-tetrazol-1-yl]phenoxymethyl}-2,3-dihydro-2-methyl-6-nitroimidazo[2,1-b]oxazole], for which the Cytotoxicity in series [1] was above 40 µg/mL. Moreover, the MIC in series [2] (setting [3]) is 2 µg/mL (≈ 4.77 µM); in series [2] (setting [4]) it was 1 to 4 µg/mL (≈ 2.38 to 9.54 µM).

For `Cc1ccc(N(C)S(=O)(=O)c2ccc(OC[C@@]3(C)Cn4cc([N+](=O)[O-])nc4O3)cc2)cc1` [IIB5, (R)—N-methyl-4-{(2-methyl-6-nitro-2,3-dihydroimidazo[2,1-b]oxazol-2-yl)methoxy}-N-(p-tolyl)benzenesulfonamide], the Cytotoxicity in series [1] was above 40 µg/mL. Moreover, the MIC in series [2] (setting [3]) amounted to 4 µg/mL (≈ 8.72 µM).

The compound `Cc1ccc(Oc2nnnn2-c2ccc(OC[C@@]3(C)Cn4cc([N+](=O)[O-])nc4O3)cc2)cc1` [IB9, (R)-2-{4-[5-(4-methylphenoxy)-1H-tetrazol-1-yl]phenoxymethyl}-2,3-dihydro-2-methyl-6-nitroimidazo[2,1-b]oxazole] returned a Cytotoxicity in series [1] above 40 µg/mL. In addition, the MIC in series [2] (setting [3]) is 4 µg/mL (≈ 8.9 µM); in series [2] (setting [4]), 1 to 4 µg/mL (≈ 2.23 to 8.9 µM).

Take `C[C@]1(COc2ccc(-n3nnnc3-c3ccc(C(F)(F)F)cc3)cc2)Cn2cc([N+](=O)[O-])nc2O1` [IB5, (R)-2-{4-[5-(4-trifluoromethylphenyl)-1H-tetrazol-1-yl]phenoxymethyl}-2,3-dihydro-2-methyl-6-nitroimidazo[2,1-b]oxazole]: the Cytotoxicity in series [1] was above 40 µg/mL. The MIC in series [2] (setting [3]) was 1 µg/mL (≈ 2.05 µM); in series [2] (setting [4]), 1 to 4 µg/mL (≈ 2.05 to 8.21 µM).

On to `C[C@]1(COc2cccc(-n3cc(-c4ccc(F)cc4)nn3)c2)Cn2cc([N+](=O)[O-])nc2O1` [IA17, (R)-2-{3-[4-(4-fluorophenyl)-1H-1,2,3-triazol-1-yl]phenoxymethyl}-2,3-dihydro-2-methyl-6-nitroimidazo[2,1-b]oxazole], for which, in series [1], the Cytotoxicity was above 40 µg/mL. For the same compound, in series [2] (setting [3]), the MIC is 2 µg/mL (≈ 4.58 µM).

The compound `Cc1ccc(-c2nnnn2-c2ccc(OC[C@@]3(C)Cn4cc([N+](=O)[O-])nc4O3)cc2)cc1` [IB3, (R)-2-{4-[5-(4-methylphenyl)-1H-tetrazol-1-yl]phenoxymethyl}-2,3-dihydro-2-methyl-6-nitroimidazo[2,1-b]oxazole] displayed a Cytotoxicity in series [1] above 40 µg/mL. The MIC in series [2] (setting [3]) is 4 µg/mL (≈ 9.23 µM); in series [2] (setting [4]), 1 to 4 µg/mL (≈ 2.31 to 9.23 µM).

In turn, `C[C@]1(COc2ccc(-c3cc(-c4cccc(F)c4)on3)cc2)Cn2cc([N+](=O)[O-])nc2O1` [IC8, (R)-2-{4-[5-(3-fluorophenyl)isoxazol-3-yl]phenoxymethyl}-2,3-dihydro-2-methyl-6-nitroimidazo[2,1-b]oxazole] came in with a Cytotoxicity in series [1] above 40 µg/mL. Also, the MIC in series [2] (setting [3]) was found to be 2 µg/mL (≈ 4.58 µM).

`C[C@]1(COc2ccc(S(=O)(=O)Nc3ccc(C(F)(F)F)cc3)cc2)Cn2cc([N+](=O)[O-])nc2O1` [IIB3, (R)-4-{(2-methyl-6-nitro-2,3-dihydroimidazo[2,1-b]oxazol-2-yl)methoxy}-N-(4 trifluoromethylphenyl)benzenesulfonamide] displayed a Cytotoxicity in series [1] above 40 µg/mL. Moreover, the MIC in series [2] (setting [3]) is 2 µg/mL (≈ 4.01 µM).

On to `CCc1ccc(OCc2cc(-c3ccc(OC[C@@]4(C)Cn5cc([N+](=O)[O-])nc5O4)cc3)no2)cc1` [IC19, (R)-2-{4-[5-(4-ethylphenoxymethyl)isoxazol-3-yl]phenoxymethyl}-2,3-dihydro-2-methyl-6-nitroimidazo[2,1-b]oxazole], for which the Cytotoxicity in series [1] is above 40 µg/mL. Besides, in series [2] (setting [3]), the MIC came out at 2 µg/mL (≈ 4.2 µM).

Take `Cc1ccc(-c2cn(-c3ccc(OC[C@@]4(C)Cn5cc([N+](=O)[O-])nc5O4)cc3)nn2)cc1` [IA8, (R)-2-{4-[4-(4-methylphenyl)-1H-1,2,3-triazol-1-yl]phenoxymethyl}-2,3-dihydro-2-methyl-6-nitroimidazo[2,1-b]oxazole]: the Cytotoxicity in series [1] is above 40 µg/mL. In series [2] (setting [3]), the MIC came to 1 µg/mL (≈ 2.31 µM).

In series [1], `Cc1ccc(OCc2cn(-c3cccc(OC[C@@]4(C)Cn5cc([N+](=O)[O-])nc5O4)c3)nn2)cc1` [IA37] had a Cytotoxicity above 40 µg/mL. In series [2] (setting [3]), the MIC worked out at 4 µg/mL (≈ 8.65 µM).
